The text below walks through data of US5389639A, “Amino alkanoic esters of rapamycin” (American Home Products Company, priority 1993, dated 1995).

Read-outs that look alike come from different tables or passages of the source.

The test system of series [1] is cells from the thymus of normal BALB/c mice (lymphocyte proliferation). The series can be described thus: Comitogen-induced thymocyte proliferation procedure (LAF). Format: cell-based. The conditions noted are these: Mus musculus. As to the method:
(§1) Immunosuppressive activity for representative compounds of this invention was evaluated in an in vitro standard pharmacological test procedure to measure lymphocyte proliferation (LAF) and in an in vivo standard pharmacological test procedure which evaluated the survival time of a pinch skin graft.
The comitogen-induced thymocyte proliferation procedure (LAF) was used as an in vitro measure of the immunosuppressive effects of representative compounds. Briefly, cells from the thymus of normal BALB/c mice are cultured for 72 hours with PHA and IL-1 and pulsed with tritiated thymidine during the last six hours. Cells are cultured with and without various concentrations of rapamycin, cyclosporin A, or test compound. Cells are harvested and incorporated radioactivity is determined. Inhibition of lymphoproliferation is assessed as percent change in counts per minute from non-drug treated controls. For each compound evaluated, rapamycin was also evaluated for the purpose of comparison. An IC50 was obtained for each test compound as well as for rapamycin. […] The results obtained for the representative compounds of this invention are presented as IC50s.

The subject of series [2] is pinch skin graft from male BALB/c donors transplanted to male C3H(H-2K) recipients. Description: Survival time of pinch skin graft. Format: in vivo, mouse. The conditions noted are these: 4 mg/kg; intraperitoneally or orally; untreated usually rejected within 6-7 days. How it is done: as §1
Representative compounds of this invention were also evaluated in an in vivo test procedure designed to determine the survival time of pinch skin graft from male BALB/c donors transplanted to male C3 H(H-2K) recipients. The method is adapted from Billingham R. E. and Medawar P. B., J. Exp. Biol. 28:385-402, (1951). Briefly, a pinch skin graft from the donor was grafted on the dorsum of the recipient as a allograft, and an isograft was used as control in the same region. The recipients were treated with either varying concentrations of test compounds intraperitoneally or orally. Rapamycin was used as a test control. Untreated recipients serve as rejection control. The graft was monitored daily and observations were recorded until the graft became dry and formed a blackened scab. This was considered as the rejection day. The mean graft survival time (number of days ±S.D.) of the drug treatment group was compared with the control group. […] Results are expressed as the mean survival time in days. Untreated (control) pinch skin grafts are usually rejected within 6-7 days. The results shown in Table 1 are based on a dose of 4 mg/kg of test compound. A survival time of 11.67±0.63 days was obtained for rapamycin at 4 mg/kg.

The nature of series [3]: Relative oral potency: oral and i.p. ED50s in the skin graft test procedure. The conditions noted are these: mouse, ratio of oral and i.p. ED50s, p.o. 40, 10, 2.5 mg/kg, i.p. 4, 1, 0.25 mg/kg, 6 consecutive days, data obtained in cremophor, lower ratio = greater oral bioavailability. Format: in vivo. As to the method:
The relative oral potency is determined by comparing the oral and i.p. ED50s obtained in the skin graft standard pharmacological test procedure. Briefly, the compound to be tested is evaluated at the doses of 40, 10, and 2.5 mg/kg for p.o. administration and 4, 1, and 0.25 mg/kg for i.p. administration, both administered for 6 consecutive days in the skin graft test procedure so that a dose response curve can be generated for both oral and i.p. administration. The data are subjected to a parallel line analysis and an oral and i.p. ED50 is calculated for the compound tested, and the ED50s are expressed as a ratio according to the following formula: [formula]
When comparing oral potency for different compounds that have been evaluated, the lower the ratio, the greater the oral bioavailability. The oral bioavailability serves as a measure of oral potency.

For a further series, the system named is Candida albicans. The settings on record: particularly against Candida albicans, both in vitro and in vivo; cited from earlier work.
The subject of series [4] is experimental allergic encephalomyelitis. The conditions noted are these: model for multiple sclerosis; cited from earlier work.
The next series has as its system adjuvant arthritis. The conditions noted are these: model for rheumatoid arthritis; cited from earlier work.
Setting [5] is: 72 hours with PHA and IL-1, tritiated thymidine during last six hours, read-out: LAF IC50.

By IC50 is commonly meant the concentration at which inhibition is half-maximal.

With `CO[C@H]1C[C@@H]2CC[C@@H](C)[C@@](O)(O2)C(=O)C(=O)N2CCCC[C@H]2C(=O)O[C@H]([C@H](C)C[C@@H]2CC[C@@H](OC(=O)C[C@H](NC(=O)OCc3ccccc3)C(=O)O)[C@H](OC)C2)CC(=O)[C@H](C)/C=C(\C)[C@@H](O)[C@@H](OC)C(=O)[C@H](C)C[C@H](C)/C=C/C=C/C=C/1C` [Example 1, Rapamycin 42-ester with (S)-3-carboxy-3-[[[phenylmethoxy]carbonyl]amino]-propanoic acid], in series [1] (setting [5]), the 50% inhibitory concentration (IC50) amounted to 10.7 nM. In addition, the “Skin Graft mean survival time (days ± SD)” value in series [2] is reported as 10.00 ± 0.00 days.
Take `CO[C@H]1C[C@@H]2CC[C@@H](C)[C@@](O)(O2)C(=O)C(=O)N2CCCC[C@H]2C(=O)O[C@H]([C@H](C)C[C@@H]2CC[C@@H](OC(=O)CC[C@H](NC(=O)OCc3ccccc3)C(=O)O)[C@H](OC)C2)CC(=O)[C@H](C)/C=C(\C)[C@@H](O)[C@@H](OC)C(=O)[C@H](C)C[C@H](C)/C=C/C=C/C=C/1C` [Example 10]: the IC50 in series [1] (setting [5]) worked out at 27.1 nM. In addition, the “Skin Graft mean survival time (days ± SD)” value in series [2] stood at 10.17 ± 0.41 days.
On the same counts, the results for `CO[C@H]1C[C@@H]2CC[C@@H](C)[C@@](O)(O2)C(=O)C(=O)N2CCCC[C@H]2C(=O)O[C@H]([C@H](C)C[C@@H]2CC[C@@H](OC(=O)C[C@H](N)C(=O)O)[C@H](OC)C2)CC(=O)[C@H](C)/C=C(\C)[C@@H](O)[C@@H](OC)C(=O)[C@H](C)C[C@H](C)/C=C/C=C/C=C/1C` [Example 3, Rapamycin 42-ester with (S)-3-amino-3-carboxypropanoic acid] are 2.5 nM and 10.17 ± 0.75 days.
On the same counts, the results for `CO[C@H]1C[C@@H]2CC[C@@H](C)[C@@](O)(O2)C(=O)C(=O)N2CCCC[C@H]2C(=O)O[C@H]([C@H](C)C[C@@H]2CC[C@@H](OC(=O)CC[C@@H](N)C(=O)O)[C@H](OC)C2)CC(=O)[C@H](C)/C=C(\C)[C@@H](O)[C@@H](OC)C(=O)[C@H](C)C[C@H](C)/C=C/C=C/C=C/1C` [Example 9, Rapamycin 42-ester with (R)-4-amino-4-carboxybutanoic acid] are 7.8 nM and 11.20 ± 1.00 days.
For `CO[C@H]1C[C@@H]2CC[C@@H](C)[C@@](O)(O2)C(=O)C(=O)N2CCCC[C@H]2C(=O)O[C@H]([C@H](C)C[C@@H]2CC[C@@H](OC(=O)CC[C@H](N)C(=O)OC(C)(C)C)[C@H](OC)C2)CC(=O)[C@H](C)/C=C(\C)[C@@H](O)[C@@H](OC)C(=O)[C@H](C)C[C@H](C)/C=C/C=C/C=C/1C` [Example 11, Rapamycin 42-ester with-(S)-4-amino-5-(1,1-dimethylethoxy)-5-oxo-pentanoic acid], the IC50 in series [1] (setting [5]) came out at 1.1 nM. The “Skin Graft mean survival time (days ± SD)” value in series [2] is 11.50 ± 1.05 days. Further, the selectivity ratio in series [3] amounted to 5.6.
In the case of `CCCOC(=O)N[C@@H](CCC(=O)O[C@@H]1CC[C@@H](C[C@@H](C)[C@@H]2CC(=O)[C@H](C)/C=C(\C)[C@@H](O)[C@@H](OC)C(=O)[C@H](C)C[C@H](C)/C=C/C=C/C=C(\C)[C@@H](OC)C[C@@H]3CC[C@@H](C)[C@@](O)(O3)C(=O)C(=O)N3CCCC[C@H]3C(=O)O2)C[C@H]1OC)C(=O)O` [Example 4, Rapamycin 42-ester with (S)-4-carboxy-4-[[[propyloxy]carbonyl]amino]butanoic acid], the IC50 in series [1] (setting [5]) came out at 3.2 nM. Besides, the “Skin Graft mean survival time (days ± SD)” value in series [2] worked out at 11.00 ± 1.00 days.
Regarding `CO[C@H]1C[C@@H]2CC[C@@H](C)[C@@](O)(O2)C(=O)C(=O)N2CCCC[C@H]2C(=O)O[C@H]([C@H](C)C[C@@H]2CC[C@@H](O)[C@H](OC)C2)CC(=O)[C@H](C)/C=C(\C)[C@@H](O)[C@@H](OC)C(=O)[C@H](C)C[C@H](C)/C=C/C=C/C=C/1C` [rapamycin], the half-inhibitory concentration (IC50) in series [1] (read-out: IC50 of rapamycin as comparator (LAF)) is 2.8 to 11.6 nM. The “Skin Graft mean survival time (days ± SD)” value in series [2] is 11.67 ± 0.63 days. Further, the antifungal activity entry in the series on Candida albicans was “antifungal activity”. The “effect in the experimental allergic encephalomyelitis model” value in series [4] is “effective”. The “effect in the adjuvant arthritis model” value in the series with adjuvant arthritis was “effective”.
For the compound `CO[C@H]1C[C@@H]2CC[C@@H](C)[C@@](O)(O2)C(=O)C(=O)N2CCCC[C@H]2C(=O)O[C@H]([C@H](C)C[C@@H]2CC[C@@H](OC(=O)CC[C@H](N)C(=O)O)[C@H](OC)C2)CC(=O)[C@H](C)/C=C(\C)[C@@H](O)[C@@H](OC)C(=O)[C@H](C)C[C@H](C)/C=C/C=C/C=C/1C` [Example 7, Rapamycin 42-ester with (S)-4-amino-4-carboxy-butanoic acid], in series [1] (setting [5]), the half-maximal inhibitory concentration (IC50) was 14 nM. Further, the “Skin Graft mean survival time (days ± SD)” value in series [2] is listed as 10.80 ± 0.40 days.
Regarding `CO[C@H]1C[C@@H]2CC[C@@H](C)[C@@](O)(O2)C(=O)C(=O)N2CCCC[C@H]2C(=O)O[C@H]([C@H](C)C[C@@H]2CC[C@@H](OC(=O)CC[C@H](NC(=O)OC(C)(C)C)C(=O)OC(C)(C)C)[C@H](OC)C2)CC(=O)[C@H](C)/C=C(\C)[C@@H](O)[C@@H](OC)C(=O)[C@H](C)C[C@H](C)/C=C/C=C/C=C/1C` [Rapamycin 42-ester with (S)-5-tert-butoxy-4-tert-butoxycarbonylamino-5-oxo-pentanoic acid, reference compound], the selectivity ratio in series [3] worked out at 188.
Consider `CCCOC(=O)N[C@H](CCC(=O)O[C@@H]1CC[C@@H](C[C@@H](C)[C@@H]2CC(=O)[C@H](C)/C=C(\C)[C@@H](O)[C@@H](OC)C(=O)[C@H](C)C[C@H](C)/C=C/C=C/C=C(\C)[C@@H](OC)C[C@@H]3CC[C@@H](C)[C@@](O)(O3)C(=O)C(=O)N3CCCC[C@H]3C(=O)O2)C[C@H]1OC)C(=O)O` [Example 5, Rapamycin 42-ester with (R)-4-carboxy-4[[[propyloxy]carbonyl]amino]-butanoic acid], for which the half-maximal inhibitory concentration (IC50) in series [1] (setting [5]) amounted to 3.9 nM. Also, the “Skin Graft mean survival time (days ± SD)” value in series [2] is on record as 10.83 ± 0.75 days.
